Biological target: T1, Recombinant human liver GK1 (GST-GK) (Homo sapiens, UniProt P35557)
T1 construct: made in house; host or cells: E. coli
T1 sequence (P35557 1-466 isoform P35557-2): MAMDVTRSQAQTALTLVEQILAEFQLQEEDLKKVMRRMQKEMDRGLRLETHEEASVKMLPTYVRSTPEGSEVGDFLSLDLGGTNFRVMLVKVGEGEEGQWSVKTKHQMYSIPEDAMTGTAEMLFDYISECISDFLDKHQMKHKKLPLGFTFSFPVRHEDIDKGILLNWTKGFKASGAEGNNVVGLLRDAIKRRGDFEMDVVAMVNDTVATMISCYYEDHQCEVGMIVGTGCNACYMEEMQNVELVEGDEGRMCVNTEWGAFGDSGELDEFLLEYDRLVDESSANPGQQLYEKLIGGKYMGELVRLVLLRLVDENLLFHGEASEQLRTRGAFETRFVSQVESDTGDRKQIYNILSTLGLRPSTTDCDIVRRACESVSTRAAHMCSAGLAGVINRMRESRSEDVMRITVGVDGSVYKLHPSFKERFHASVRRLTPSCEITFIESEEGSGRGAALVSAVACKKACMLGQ
Experiment: In vitro glucokinase activity (G6PDH-coupled NADH assay)
Format: biochemical
Settings: for SC1.5 (concentration of activator that produced a 50% increase in the activity of GK): 30° C., 5 mM D-glucose, 10% DMSO
Summary of the method: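 GST-tagged human liver GK1 from E. coli, assayed at 30° C in 25 mM Hepes pH 7.1 with 5 mM D-glucose, 1 mM ATP, 1.8 mM NAD and G6PDH coupling, 10% DMSO final; reaction started with enzyme after 10 min preincubation. NADH formation followed at OD340; SC1.5 is activator concentration giving 50% increase over DMSO control rate.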

Row | SMILES | SC1.5 (concentration of activator that produced a 50% increase in the activity of GK) | fold act. @ 30 μM (at 30 μM test compound)
1 | CCOc1cccc(OC2=CC(=O)N([C@@H](CC(C)C)C(=O)Nc3ccn(C[C@@H](O)CO)n3)C2)c1Cl [Example 161, (S)-2-[4-(2-chloro-3-ethoxy-phenoxy)-2-oxo-2,5-dihydro-pyrrol-1-yl]-4-methyl-pentanoic acid [1-((R)-2,3-dihydroxy-propyl)-1H-pyrazol-3-yl]-amide] | 0.042 µM | –
2 | COC(=O)c1ccc(NC(=O)[C@H](CC2CCOCC2)N2CC(Oc3c(F)cccc3F)=CC2=O)nc1 [Example 41, (S)-6-[2-[4-(2,6-difluoro-phenoxy)-2-oxo-2,5-dihydro-pyrrol-1-yl]-3-(tetrahydro-pyran-4-yl)-propionylamino]-nicotinic acid methyl ester] | 0.071 µM | –
3 | COC(=O)c1ccc(NC(=O)C(CC2CCOCC2)N2CC(Oc3c(F)cccc3F)=CC2=O)nc1 (stereo not drawn) [Example 40, 6-[2-[4-(2,6-difluoro-phenoxy)-2-oxo-2,5-dihydro-pyrrol-1-yl]-3-(tetrahydro-pyran-4-yl)-propionylamino]-nicotinic acid methyl ester] | 0.19 µM | –
4 | CC(C)C[C@@H](C(=O)Nc1ccn(C[C@@H](O)CO)n1)N1CC(Oc2ccccc2Br)=CC1=O [Example 137, (S)-2-[4-(2-Bromo-phenoxy)-2-oxo-2,5-dihydro-pyrrol-1-yl]-4-methyl-pentanoic acid [1-((R)-2,3-dihydroxy-propyl)-1H-pyrazol-3-yl]-amide] | 0.26 µM | –
5 | COc1ccc(OC2=CC(=O)N([C@@H](CC(C)C)C(=O)Nc3ccn(C[C@@H](O)CO)n3)C2)cc1 [Example 99, (S)-2-[4-(4-Methoxy-phenoxy)-2-oxo-2,5-dihydro-pyrrol-1-yl]-4-methyl-pentanoic acid [1-((R)-2,3-dihydroxy-propyl)-1H-pyrazol-3-yl]-amide] | 0.747 µM | –
6 | COc1ccc(Cc2nsc(NC(=O)[C@H](CC(C)C)N3CC(Oc4ccccc4Cl)=CC3=O)n2)cc1 [Example 109, (S)-2-[4-(2-Chloro-phenoxy)-2-oxo-2,5-dihydro-pyrrol-1-yl]-4-methyl-pentanoic acid [3-(4-methoxy-benzyl)-[1,2,4]thiadiazol-5-yl]-amide] | > 30 µM | 1.3 fold
7 | CC(C)C[C@@H](C(=O)Nc1ccn(C[C@@H](O)CO)n1)N1CC(Oc2cccc(C3CC3)c2F)=CC1=O [Example 147, (S)-2-[4-(3-Cyclopropyl-2-fluoro-phenoxy)-2-oxo-2,5-dihydro-pyrrol-1-yl]-4-methyl-pentanoic acid [1-((R)-2,3-dihydroxy-propyl)-1H-pyrazol-3-yl]-amide] | 0.105 µM | –
8 | COCc1nsc(NC(=O)[C@H](CC(C)C)N2CC(Oc3ccccc3Cl)=CC2=O)n1 [Example 112, (S)-2-[4-(2-Chloro-phenoxy)-2-oxo-2,5-dihydro-pyrrol-1-yl]-4-methyl-pentanoic acid (3-methoxymethyl-[1,2,4]thiadiazol-5-yl)-amide] | 2.26 µM | –
9 | CC1(C)OC[C@@H](Cn2ccc(NC(=O)[C@H](CC3CCCC3)N3CC(Oc4c(F)cccc4F)=CC3=O)n2)O1 [Example 87, (S)-3-Cyclopentyl-2-[4-(2,6-difluoro-phenoxy)-2-oxo-2,5-dihydro-pyrrol-1-yl]-N-[1-((R)-2,2-dimethyl-[1,3]dioxolan-4-yl-methyl)-1H-pyrazol-3-yl]-propionamide] | 0.093 µM | –
10 | CC(C)C[C@@H](C(=O)Nc1ccn(C[C@@H]2COC(C)(C)O2)n1)N1CC(Oc2ccccc2Cl)=CC1=O [Example 65] | 0.527 µM | –
11 | Cl.Cn1ccc(NC(=O)[C@H](CC2CCCCC2)N2CC(Oc3c(F)ccc(Cl)c3F)=CC2=O)n1 [Example 75, (S)-2-[4-(3-Chloro-2,6-difluoro-phenoxy)-2-oxo-2,5-dihydro-pyrrol-1-yl]-3-cyclohexyl-N-(1-methyl-1H-pyrazol-3-yl)-propionamide Hydrochloride] | 0.037 µM | –

More lines, now with the values ahead:

Row | SC1.5 (concentration of activator that produced a 50% increase in the activity of GK) | fold act. @ 30 μM (at 30 μM test compound) | SMILES
12 | 0.034 µM | – | CC(C)(O)Cn1ccc(NC(=O)[C@H](CC2CCCCC2)N2CC(Oc3cccc(F)c3)=CC2=O)n1 [Example 206, (S)-3-cyclohexyl-2-[4-(3-fluoro-phenoxy)-2-oxo-2,5-dihydro-pyrrol-1-yl]-N-[1-(2-hydroxy-2-methyl-propyl)-1H-pyrazol-3-yl]-propionamide]
13 | 0.018 µM | – | Cc1cccc(OC2=CC(=O)N([C@@H](CC3CCCCC3)C(=O)Nc3ccn(CC(C)(C)O)n3)C2)c1 [Example 210, (S)-3-cyclohexyl-N-[1-(2-hydroxy-2-methyl-propyl)-1H-pyrazol-3-yl]-2-(2-oxo-4-m-tolyloxy-2,5-dihydro-pyrrol-1-yl)-propionamide]
14 | 0.894 µM | – | O=C(Nc1ccn(C[C@@H](O)CO)n1)[C@H](Cc1ccccc1Cl)N1CC(Oc2ccccc2Cl)=CC1=O [Example 189, (S)-2-[4-(2-chloro-phenoxy)-2-oxo-2,5-dihydro-pyrrol-1-yl]-N-[1-((R)-2,3-dihydroxy-propyl)-1H-pyrazol-3-yl]-3-(2-chlorophenyl)-propionamide]
15 | 0.437 µM | – | CC(C)C[C@@H](C(=O)Nc1ccn(C[C@@H](O)CO)n1)N1CC(Oc2ccc3c(c2)OCCO3)=CC1=O [Example 168, (S)-2-[4-(2,3-dihydro-benzo[1,4]dioxin-6-yloxy)-2-oxo-2,5-dihydro-pyrrol-1-yl]-4-methyl-pentanoic acid [1-((R)-2,3-dihydroxy-propyl)-1H-pyrazol-3-yl]-amide]
16 | 0.892 µM | – | CC(C)(O)Cn1ccc(NC(=O)[C@H](CC2CCCCC2)N2CC(Oc3ccccc3C(C)(C)C)=CC2=O)n1 [Example 197, (S)-2-[4-(2-t-butyl-phenoxy)-2-oxo-2,5-dihydro-pyrrol-1-yl]-3-cyclohexyl-N-[1-(2-hydroxy-2-methyl-propyl)-1H-pyrazol-3-yl]-propionamide]
17 | 0.206 µM | – | CC(C)C[C@@H](C(=O)Nc1ccn(CC(C)(C)O)n1)N1CC(Oc2ccccc2F)=CC1=O [Example 167, (S)-2-[4-(2-Fluoro-phenoxy)-2-oxo-2,5-dihydro-pyrrol-1-yl]-4-methyl-pentanoic acid [1-(2-hydroxy-2-methyl-propyl)-1H-pyrazol-3-yl]-amide]
18 | 0.011 µM | – | CC(C)(O)Cn1ccc(NC(=O)[C@H](CC2CCCCC2)N2CC(Oc3cccc(F)c3F)=CC2=O)n1 [Example 200, (S)-3-cyclohexyl-2-[4-(2,3-difluoro-phenoxy)-2-oxo-2,5-dihydro-pyrrol-1-yl]-N-[1-(2-hydroxy-2-methyl-propyl)-1H-pyrazol-3-yl]-propionamide]
19 | 1.629 µM | – | CC1(C)OC[C@@H](Cn2ccc(NC(=O)[C@H](Cc3ccccc3Cl)N3CC(Oc4ccccc4Cl)=CC3=O)n2)O1 [Example 188, (S)-2-[4-(2-chloro-phenoxy)-2-oxo-2,5-dihydro-pyrrol-1-yl]-N-[1-((R)-2,2-dimethyl-[1,3]dioxolan-4-yl-methyl)-1H-pyrazol-3-yl]-3-(2-chlorophenyl)-propionamide]
20 | 0.823 µM | – | CC(C)C[C@@H](C(=O)Nc1ccn(CC(C)(C)O)n1)N1CC(Oc2cccc(CC(C)(C)O)c2)=CC1=O [Example 236, (S)-2-{4-[3-(2-Hydroxy-2-methyl-propyl)-phenoxy]-2-oxo-2,5-dihydro-pyrrol-1-yl}-4-methyl-pentanoic acid [1-(2-hydroxy-2-methyl-propyl)-1H-pyrazol-3-yl]-amide]
21 | 0.012 µM | – | COc1cccc(OC2=CC(=O)N([C@@H](CC3CCCCC3)C(=O)Nc3ccn(C[C@@H](O)CO)n3)C2)c1 [Example 164, (S)-3-Cyclohexyl-N-[1-((R)-2,3-dihydroxy-propyl)-1H-pyrazol-3-yl]-2-[4-(3-methoxy-phenoxy)-2-oxo-2,5-dihydro-pyrrol-1-yl]-propionamide]
22 | 0.307 µM | – | CCOc1cccc(OC2=CC(=O)N([C@@H](CC(C)C)C(=O)Nc3ccn(C[C@@H](O)CO)n3)C2)c1 [Example 162, (S)-2-[4-(3-Ethoxy-phenoxy)-2-oxo-2,5-dihydro-pyrrol-1-yl]-4-methyl-pentanoic acid [1-((R)-2,3-dihydroxy-propyl)-1H-pyrazol-3-yl]-amide]
23 | 0.086 µM | – | O=C(Nc1ccn(C[C@@H](O)CO)n1)C(CC1CCC1)N1CC(Oc2ccccc2Cl)=CC1=O (stereo partly drawn) [Example 169, 2-[4-(2-chloro-phenoxy)-2-oxo-2,5-dihydro-pyrrol-1-yl]-3-cyclobutyl-N-[1-((R)-2,3-dihydroxy-propyl)-1H-pyrazol-3-yl]-propionamide]

— patent publication US7741327B2 (Hoffmann-La Roche Inc., priority 2008, dated 2010)
